Legend:
[1] = test system: cut carnation flowers; assay: Water uptake of treated cut flowers; settings: 60 or 120 ppm CPAS in 20 mM NaHCO3 pH 8.2; 36 cm stems; 48 hours after termination of ethylene exposure (2 ppm, 24 h)
Description: Water Uptake: The uptake of water by cut flowers was measured after CPAS loading and after ethylene exposure (exposure to 2 ppm ethylene for 24 hours, unless otherwise indicated). The aqueous treatment solution was maintained at 20 mL by addition of tap water after each treatment.
Aqueous treatment solutions of CPAS were prepared and tested, each of which contained 0, 60 or 120 ppm of CPAS in 20 mM NaHCO3 (pH 8.2). Cut flowers (36 cm long stems) were treated according to the treatment procedure described above.

[2] = test system: carnation flowers; assay: Loading 14-18 h with CPAS, 0-72 h in tap water, then ethylene for 24 h; vase life assessment; assay type: in vivo, carnation (Dianthus caryophyllus); settings: for protection from ethylene-induced senescence: loading 14-18 h, 1.0 ppm ethylene 24 h
Description: Carnation flower stems were cut under tap water to the desired lengths (36 and 55 cm). Four flowers per treatment, in groups of two flowers each, were loaded for 14-18 hours in 20 mL of treatment solutions containing 0, 30, 60 and 120 mg L^−1 CPAS in either an aqueous solution containing sodium carbonate/sodium bicarbonate buffer (40 mM, pH=9.5) and 0.025% Tween 20 or an aqueous solution containing K-Phosphate Buffer (40 mM, pH=7.8) and 0.025% Tween 20. At the end of CPAS loading (14-18 hours), groups of treated flowers were transferred into tap water for 0, 24, 48 and 72 hours. The cut flowers were then exposed to 1.0 ppm ethylene for 24 hours. At the end of the ethylene treatment, the flowers were ventilated and left under controlled conditions for additional 11, 10, 9, 8 days, respectively, for vase life assessment. Pictures of were taken 13 days after beginning of the experiment. It is noted that the carnation flowers tested were highly sensitive to ethylene, and therefore exposure to ethylene at an amount of 1.0 ppm was effected.

[3] = test system: cut carnation flowers; assay: Flower diameter of cut carnations after CPAS loading and ethylene exposure; assay type: in vivo, carnation (Dianthus caryophyllus)
Description: (§1) Treatment Procedure: The flower stems were cut under tap water to the desired lengths (15 cm-55 cm). Four flowers for each treatment group (of two flowers per each groups) were loaded in a 20 mL aqueous treatment solution (or “loading solution”) for 24 hours. The treatment solution was placed in a 35 mL tube. The loading solutions of CPAS in buffers were prepared in distilled water, as described hereinafter. At the end of CPAS loading, the flowers were transferred to tap water for 1 to 4 days until the cut flowers open. The cut flowers were then exposed to 2 ppm ethylene for 24 hours. Control cut flowers were loaded in a control solution without CPAS in the same manner as the treated cut flowers, and were thereafter exposed to ethylene or air. At the end of ethylene exposure, the flowers were ventilated and left in tap water under controlled conditions (a temperature of 22° C., a relative humidity of 80%, and continuous fluorescent light) for additional 5 days for senescence assessment.
Flower Diameter: In some experiments, flower diameter was determined according to the method described in Goren et al., Plant Growth Regulation 65:327-334 (2011), to assess flower quality.

[4] = test system: carnation flowers; assay: Spraying cut carnations with CPAS solution, then 2 ppm ethylene for 24 h; assay type: in vivo, carnation (Dianthus caryophyllus)
Description: Carnation flowers were harvested at the full bloom stage, when the outer petals deflected at right angles to the stem. The flowers were selected for uniformity in terms of flower diameter and placed in tap water. […] The deionized water was used to avoid salt precipitation due to the existence of calcium in tap water. The treatment solution contained a surfactant, Triton-X 100™ (0.05%). Twenty-four hours after the spraying application, the flowers were treated with 2 ppm ethylene for 24 hours. During treatment and during observation of vase-life, the flowers were kept at 22° C. Each treatment was carried out in three replicates, 3 flowers in each replicate.
Carnation flowers were harvested at the full bloom stage, when the outer petals deflected at right angles to the stem. The flowers were selected for uniformity in terms of flower diameter and placed in tap water. The flowers were then sprayed with various concentrations of CPAS (sodium salt) ranging from 15 to 60 ppm dissolved in NaHCO3 (pH 8.2, 20 and 40 mM) in tap water. The treatment solution contained a surfactant, Kinetic® (0.05%). Twenty-four hours after the CPAS spraying application, the flowers were treated with 2 ppm ethylene for 24 hours. During treatment and during observation of vase-life, the flowers were kept 22° C. Each treatment was carried out in three replicates, 3 flowers in each replicate.

[5] = test system: cut carnation flowers; assay: Delaying senescence of cut carnation flowers: loading 24 h in CPAS solution, then 2 ppm ethylene for 24 h, visual inspection/photographs; assay type: in vivo, carnation (Dianthus caryophyllus); parameters: key: The result “−” means no ethylene antagonizing effect by visual inspection.; The result “+++” means high ethylene antagonizing effect by visual inspection.; The result “++++” means very high ethylene antagonizing effect by visual inspection; settings: CPAS sodium salt 20-120 ppm, 36-55 cm stems
From the text: The ethylene antagonizing effect of composition described herein can be assessed by its effect of delaying senescence of cut plants, such as cut flowers. Some embodiments of the present invention are based on the use of the composition described herein to treat cut flowers for delaying senescence of the cut flowers.
Cut Flowers: Unless otherwise noted, carnation flowers grown in a greenhouse were harvested at the beginning of flower opening stage, early in the morning, and were immediately brought to the laboratory. The flowers were either processed immediately or stored in a cold room (4° C.) for 1 to 5 days as required.
as §1

O=C([O-])CCC1=CC1.[Na+] [CPAS, 3-cyclopropyl-1-enyl-propanoic acid salt]
water uptake of flowers [1]: increased water uptake
protection from ethylene-induced senescence ([2]; CPAS 60 and 120 mg L^−1 in K-Phosphate buffer 40 mM pH 7.8, 0.025% Tween 20): almost no protection
protection from ethylene-induced senescence ([2]; CPAS 60 and 120 mg L^−1 in sodium carbonate/sodium bicarbonate buffer 40 mM pH 9.5, 0.025% Tween 20): significantly protected
protection with ethylene treatment 2 and 3 days after pretreatment ([2]; CPAS at the two higher concentrations in Na-Carbonate buffer): more protected as the incubation time increases
resistance to ethylene-induced flower senescence after pretreatment ([2]; ethylene exposure 3 days after pretreatment with CPAS): resistant
senescence of cut flowers as measured by flower diameter ([3]; 55 cm stems, 100, 120 or 140 ppm CPAS in Na-phosphate or Na-phosphate/citrate buffer containing NaHCO3): delayed senescence was generally observed
effect of NaHCO3 concentration (60 or 80 mM) on treatment results ([3]; 55 cm stems, CPAS in Na-phosphate buffer (20 mM) containing NaHCO3): did not significantly affect the treatment results
effect of NaHCO3 concentration (60 or 80 mM) on treatment results ([3]; 55 cm stems, CPAS in Na-phosphate/citrate buffer (20 mM) containing NaHCO3): 80 mM NaHCO3 yielding better treatment results than 60 mM NaHCO3
senescence of cut flowers as measured by flower diameter ([3]; stem length 55 cm, 80 or 120 ppm CPAS in 40, 60 or 80 mM Na2CO3/NaHCO3 buffer): delayed senescence
senescence of cut flowers as measured by flower diameter ([3]; stem length 55 cm, 80 ppm CPAS in 80 mM NaHCO3): delayed senescence
ethylene antagonizing effect compared among NaHCO3 concentrations ([3]; stem length 55 cm, 120 ppm CPAS in 60 mM NaHCO3 versus 40 and 80 mM): highest ethylene antagonizing effect
senescence of cut flowers as measured by flower diameter ([3]; stem length 55 cm, 120 ppm CPAS in 40, 60 or 80 mM NaHCO3): delayed senescence
effect on ethylene-induced flower senescence ([4]; 15 ppm CPAS in NaHCO3 pH 8.2 (20 and 40 mM), Kinetic 0.05%, tap water): little effect
effect on ethylene-induced flower senescence ([4]; 40 ppm CPAS in Na2CO3/NaHCO3 buffer pH 9.2 below 60 mM, Triton-X 100 0.05%, deionized water): little effect
effect on ethylene-induced flower senescence ([4]; 80 and 120 ppm CPAS in Na2CO3/NaHCO3 buffer pH 9.2, 40 and 60 mM, Triton-X 100 0.05%): significant effect
delay of flower senescence, tap water versus DI water ([4]; CPAS in NaHCO3 (40 mM) dissolved in tap water compared with DI water): more efficiently
effect on ethylene-induced flower senescence ([4]; higher CPAS concentrations (up to 60 ppm) in NaHCO3 pH 8.2 (20 and 40 mM), Kinetic 0.05%, tap water): significantly delayed flower senescence
Results (efficacy of CPAS, ethylene antagonizing effect by visual inspection) ([5]; Glycine/NaOH buffer 20 mM pH 8.8): −
Results (efficacy of CPAS, ethylene antagonizing effect by visual inspection) ([5]; H3BO3/NaOH buffer 20 mM pH 9.2): −
Results (efficacy of CPAS, ethylene antagonizing effect by visual inspection) ([5]; HCl-TRIS buffer 20 mM pH 8.4): −
Results (efficacy of CPAS, ethylene antagonizing effect by visual inspection) ([5]; Isopropylamine 500-1000 ppm pH 11.0): −
Results (efficacy of CPAS, ethylene antagonizing effect by visual inspection) ([5]; K-Citrate/Citric Ac. buffer 20 mM pH 4.65): −
Results (efficacy of CPAS, ethylene antagonizing effect by visual inspection) ([5]; K-Citrate/Citric Ac. buffer 20 mM pH 5.0 with 2,3-butanedione (500 ppm)): −
Results (efficacy of CPAS, ethylene antagonizing effect by visual inspection) ([5]; K-Citrate/Citric Ac. buffer 20 mM pH 5.0 with EMK (5%)): −
Results (efficacy of CPAS, ethylene antagonizing effect by visual inspection) ([5]; K-Citrate/Citric Ac. buffer 20 mM pH 5.0 with PVP (0.5%)): −
Results (efficacy of CPAS, ethylene antagonizing effect by visual inspection) ([5]; Na2B4O7/NaOH buffer 20 mM pH 9.4): −
Results (efficacy of CPAS, ethylene antagonizing effect by visual inspection) ([5]; Na2CO3/NaHCO3 buffer 40 mM pH 9.2-9.4 with Chloramphenicol 150 μM): ++++
Results (efficacy of CPAS, ethylene antagonizing effect by visual inspection) ([5]; Na2CO3/NaHCO3 buffer 20-80 mM pH 9.2-9.4): ++++
Results (efficacy of CPAS, ethylene antagonizing effect by visual inspection) ([5]; Na-Phosphate buffer 20 mM pH 6.0 + NaHCO3 60-80 mM, pH 7.4): +++
Results (efficacy of CPAS, ethylene antagonizing effect by visual inspection) ([5]; Na-Phosphate buffer 20 mM pH 7.6): −
Results (efficacy of CPAS, ethylene antagonizing effect by visual inspection) ([5]; Na-Phosphate/Citrate buffer 20 mM pH 6.0 + NaHCO3 60-80 mM, pH 7.2): +++
Results (efficacy of CPAS, ethylene antagonizing effect by visual inspection) ([5]; NaHCO3 40 mM pH 8.2 with Chloramphenicol 50 μM): +++
Results (efficacy of CPAS, ethylene antagonizing effect by visual inspection) ([5]; NaHCO3 20-80 mM pH 8.2): +++
